Patent US9656963B2 (BRISTOL-MYERS SQUIBB COMPANY, priority 2012, dated 2017)

Molecular target: T1, hGPR40 (Homo sapiens, UniProt O14842)
T1 construct: 3x FLAG; expressed in transfected cells
Test: FDSS-Based Intracellular Calcium Assay
Type: cell-based
Conditions: cells expressing GPR40, intracellular Ca2+ response
Description: FDSS-Based Intracellular Calcium Assay
Cell lines expressing GPR40 are generated using the pDEST 3× flag gene expression system and are cultured in culture medium comprising the following components: F12 (Gibco #11765), 10% lipid deprived fetal bovine serum, 250 μg/ml zeocin and 500 μg/ml G418. To conduct the fluorescent imaging plate reader (FLIPR)-based calcium flux assay to measure intracellular Ca^2+ response, cells expressing GPR40 are plated on 384 well plates (BD Biocoat #356697) at a density of 20,000 cells/20 μL medium per well in phenol red and serum-free DMEM (Gibco #21063-029) and incubated overnight. […] Compounds are dissolved in DMSO and diluted to desired concentrations with assay buffer and added to the cells as 3x solution (20 μL per well). Run fluorescence/luminescence reader FDSS (Hamamatsu) to read intracellular Ca^2+ response.

T1 sequence (O14842 whole entry): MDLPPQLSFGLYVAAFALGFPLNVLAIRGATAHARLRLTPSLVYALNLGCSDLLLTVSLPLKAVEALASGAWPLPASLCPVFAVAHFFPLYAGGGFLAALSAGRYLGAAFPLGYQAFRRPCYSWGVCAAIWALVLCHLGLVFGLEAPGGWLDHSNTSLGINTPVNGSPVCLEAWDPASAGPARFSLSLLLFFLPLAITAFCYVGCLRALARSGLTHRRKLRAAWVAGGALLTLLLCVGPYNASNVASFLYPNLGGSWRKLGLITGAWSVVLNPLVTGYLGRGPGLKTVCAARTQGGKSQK

Compound	EC50 [µM]
COc1cc(-c2ccc(Cc3ccc(N4N=C(C(F)(F)F)CC4CC(=O)O)cc3)c(C)c2)c(F)cn1 (single isomer, unassigned) [Example 27, Isomer 2, 2-(1-(4-(4-(5-fluoro-2-methoxypyridin-4-yl)-2-methylbenzyl)phenyl)-3-(trifluoromethyl)-4,5-dihydro-1H-pyrazol-5-yl)acetic acid]	0.15
COc1ccc(F)c(-c2ccc(Cc3ccc(N4N=C(C#N)CC4CC(=O)O)cc3)c(C)c2)c1 (single isomer, unassigned) [Example 34, Isomer 1, 2-(3-cyano-1-(4-((2′-fluoro-5′-methoxy-3-methylbiphenyl-4-yl)methyl)phenyl)-4,5-dihydro-1H-pyrazol-5-yl)acetic acid]	0.15
COc1ccc(F)c(-c2ccc(Oc3ccc(N4N=C(C(F)(F)F)CC4CC(=O)O)cc3)c(Cl)c2)c1 (single isomer, unassigned) [Example 42, Isomer 1, 2-(1-(4-(3-chloro-2′-fluoro-5′-methoxybiphenyl-4-yloxy)phenyl)-3-(trifluoromethyl)-4,5-dihydro-1H-pyrazol-5-yl)acetic acid]	0.62
COc1ccc(F)c(-c2ccc(Oc3ccc(N4N=C(C(F)(F)F)CC4CC(=O)O)cc3)c(Cl)c2)c1 (single isomer, unassigned) [Example 42, Isomer 2, 2-(1-(4-(3-chloro-2′-fluoro-5′-methoxybiphenyl-4-yloxy)phenyl)-3-(trifluoromethyl)-4,5-dihydro-1H-pyrazol-5-yl)acetic acid]	0.29

Other lines, results leading:

EC50 [µM]	Compound
0.56	COc1ccc(F)c(-c2ccc(Cc3ccc(N4N=C(C#N)CC4CC(=O)O)cc3)c(C)c2)c1 (single isomer, unassigned) [Example 34, Isomer 2, 2-(3-cyano-1-(4-((2′-fluoro-5′-methoxy-3-methylbiphenyl-4-yl)methyl)phenyl)-4,5-dihydro-1H-pyrazol-5-yl)acetic acid]
0.095	COc1ccc(F)c(-c2ccc(Cc3ccc(N4N=C(C(F)(F)F)C(CC(C)C)C4CC(=O)O)cc3)c(C)c2)c1 (single isomer, unassigned) [Example 41, Isomer 2, 2-(1-(4-((2′-fluoro-5′-methoxy-3-methylbiphenyl-4-yl)methyl)phenyl)-4-isobutyl-3-(trifluoromethyl)-4,5-dihydro-1H-pyrazol-5-yl)acetic acid]
3.28	COc1ccc(F)c(-c2ccc(Cc3ccc(N4N=C(C(F)(F)F)C(C5CC5)C4CC(=O)O)cc3)c(C)c2)c1 (single isomer, unassigned) [Example 43, Isomer 1, 2-(4-cyclopropyl-1-(4-((2′-fluoro-5′-methoxy-3-methylbiphenyl-4-yl)methyl)phenyl)-3-(trifluoromethyl)-4,5-dihydro-1H-pyrazol-5-yl)acetic acid]
0.09	COc1ccc(F)c(-c2ccc(Cc3ccc(N4N=C(C(F)(F)F)C(C5CC5)C4CC(=O)O)cc3)c(C)c2)c1 (single isomer, unassigned) [Example 43, Isomer 2, 2-(4-cyclopropyl-1-(4-((2′-fluoro-5′-methoxy-3-methylbiphenyl-4-yl)methyl)phenyl)-3-(trifluoromethyl)-4,5-dihydro-1H-pyrazol-5-yl)acetic acid]
1.31	CCC1C(C(F)(F)F)=NN(c2ccc(Cc3ccc(-c4cc(OC)ccc4F)cc3C)cc2)C1CC(=O)O (single isomer, unassigned) [Example 44, Isomer 1, 2-(4-ethyl-1-(4-((2′-fluoro-5′-methoxy-3-methylbiphenyl-4-yl)methyl)phenyl)-3-(trifluoromethyl)-4,5-dihydro-1H-pyrazol-5-yl)acetic acid]
0.02	CCC1C(C(F)(F)F)=NN(c2ccc(Cc3ccc(-c4cc(OC)ccc4F)cc3C)cc2)C1CC(=O)O (single isomer, unassigned) [Example 44, Isomer 2, 2-(4-ethyl-1-(4-((2′-fluoro-5′-methoxy-3-methylbiphenyl-4-yl)methyl)phenyl)-3-(trifluoromethyl)-4,5-dihydro-1H-pyrazol-5-yl)acetic acid]
